# Data as given in article PMC5399447, “Neuroprotective pentapeptide CN-105 is associated with reduced sterile inflammation and improved functional outcomes in a traumatic brain injury murine model” (Scientific Reports, 2017).
# System: 84 genes related to inflammatory and autoimmune processes
# Test: Mouse Inflammatory Response and Autoimmunity PCR Array, whole brain
# Assay type: in vivo
# Set-up: key to Il9 ΔCt value, S-CN-105 / Il8ra ΔCt value, S-CN-105 / Il1rn ΔCt value, S-CN-105 / Il1f10 ΔCt value, S-CN-105 / Crp ΔCt value, S-CN-105: *: Indicate mRNA expression was below the level of detection
# Settings: brain 24 h
# Description: Frozen, pulverized whole brain tissue was processed for RNA extraction from a separate cohort of treated and untreated injured animals on days 1 post-injury(CN-105, n = 4; vehicle, n = 3; Control(sham-operated), n = 3). Total RNA was extracted from frozen, pulverized whole brain tissue using RNeasy Lipid Tissue Mini Kit(Qiagen, Valencia, CA). RNA quantity and quality was assessed with the NanoDrop ND-1000 spectrophotometer(NanoDrop Technologies, Inc., Wilmington, DE) and by agarose gel electrophoresis. Only samples with a 260/280 ratio between 1.9–2.1, and a 260/230 ratio greater than 2.0, were further processed. First strand complementary DNA(cDNA) was generated from 2 μg total RNA using the RT[2] First strand kit(SABiosciences, Frederick, MD.)
# Gene expression was measured using the Mouse Inflammatory Response and Autoimmunity PCR Array(SABiosciences, Frederick, MD), which profiles the expression of 84 genes related to inflammatory and autoimmune processes. RT-PCR was performed according to manufacturer’s instructions Quality of the cDNA and PCR efficiency was verified by housekeeping genes and RT-PCR controls included in the PCR Array.
# Raw RT-PCR data were analyzed using the Web-Based PCR Array Data Analysis software(SABiosciences). ΔCt values and ΔΔCt - based fold-change were calculated from raw threshold cycle data, using beta-actin and glyceraldehyde 3-phosphate dehydrogenase(GAPDH) as internal standards for normalization. Fold changes were then normalized against sham-operated controls.
substance,measurement,setting,value
Ac-VSRRR-amide [CN-105],Fos fold change TBI-CN-105/S-v,TBI CN-105 vs sham vehicle,1.1
same,Hdac4 fold change TBI-CN-105/S-v,TBI CN-105 vs sham vehicle,13.9
same,Ifng fold change TBI-CN-105/S-v,TBI CN-105 vs sham vehicle,59.7
same,Il1a fold change TBI-CN-105/S-v,TBI CN-105 vs sham vehicle,37.7
same,Il1b fold change TBI-CN-105/S-v,TBI CN-105 vs sham vehicle,416.6
same,Il1f10 fold change TBI-CN-105/S-v,TBI CN-105 vs sham vehicle,352.3
same,Il1r1 fold change TBI-CN-105/S-v,TBI CN-105 vs sham vehicle,−6.2
same,Il1rap fold change TBI-CN-105/S-v,TBI CN-105 vs sham vehicle,−37.5
same,Il1rn fold change TBI-CN-105/S-v,TBI CN-105 vs sham vehicle,74.2
same,Il6 fold change TBI-CN-105/S-v,TBI CN-105 vs sham vehicle,13.2
same,Il6ra fold change TBI-CN-105/S-v,TBI CN-105 vs sham vehicle,47.9
same,Il7 fold change TBI-CN-105/S-v,TBI CN-105 vs sham vehicle,5569.8
same,Il8ra fold change TBI-CN-105/S-v,TBI CN-105 vs sham vehicle,196.8
same,Il8rb fold change TBI-CN-105/S-v,TBI CN-105 vs sham vehicle,658.4
same,Il9 fold change TBI-CN-105/S-v,TBI CN-105 vs sham vehicle,1155.5
same,Il10 fold change TBI-CN-105/S-v,TBI CN-105 vs sham vehicle,82.2
same,Il10rb fold change TBI-CN-105/S-v,TBI CN-105 vs sham vehicle,1.5
same,Il18 fold change TBI-CN-105/S-v,TBI CN-105 vs sham vehicle,−9.5
same,Il18rap fold change TBI-CN-105/S-v,TBI CN-105 vs sham vehicle,58.6
same,Il22 fold change TBI-CN-105/S-v,TBI CN-105 vs sham vehicle,77.8
same,Il22ra2 fold change TBI-CN-105/S-v,TBI CN-105 vs sham vehicle,3448.3
same,Il23a fold change TBI-CN-105/S-v,TBI CN-105 vs sham vehicle,838.4
same,Il23r fold change TBI-CN-105/S-v,TBI CN-105 vs sham vehicle,7.2
same,Itgb2 fold change TBI-CN-105/S-v,TBI CN-105 vs sham vehicle,9.6
same,Lta fold change TBI-CN-105/S-v,TBI CN-105 vs sham vehicle,917.0
same,Ltb fold change TBI-CN-105/S-v,TBI CN-105 vs sham vehicle,75.7
same,Ly96 fold change TBI-CN-105/S-v,TBI CN-105 vs sham vehicle,19.9
same,Myd88 fold change TBI-CN-105/S-v,TBI CN-105 vs sham vehicle,8.5
same,Nfatc3 fold change TBI-CN-105/S-v,TBI CN-105 vs sham vehicle,364.7
same,Nfkb1 fold change TBI-CN-105/S-v,TBI CN-105 vs sham vehicle,−3.1
same,Nos2 fold change TBI-CN-105/S-v,TBI CN-105 vs sham vehicle,1779.4
same,Nr3c1 fold change TBI-CN-105/S-v,TBI CN-105 vs sham vehicle,−17.8
same,Ripk2 fold change TBI-CN-105/S-v,TBI CN-105 vs sham vehicle,30.1
same,Tirap fold change TBI-CN-105/S-v,TBI CN-105 vs sham vehicle,14.0
same,Tlr1 fold change TBI-CN-105/S-v,TBI CN-105 vs sham vehicle,15.4
same,Tlr2 fold change TBI-CN-105/S-v,TBI CN-105 vs sham vehicle,10.0
same,Tlr3 fold change TBI-CN-105/S-v,TBI CN-105 vs sham vehicle,3.9
same,Tlr4 fold change TBI-CN-105/S-v,TBI CN-105 vs sham vehicle,6.5
same,Tlr5 fold change TBI-CN-105/S-v,TBI CN-105 vs sham vehicle,2.5
same,Tlr6 fold change TBI-CN-105/S-v,TBI CN-105 vs sham vehicle,14.9
same,Tlr7 fold change TBI-CN-105/S-v,TBI CN-105 vs sham vehicle,546.2
same,Tnf fold change TBI-CN-105/S-v,TBI CN-105 vs sham vehicle,1367.7
same,Tnfsf14 fold change TBI-CN-105/S-v,TBI CN-105 vs sham vehicle,365.9
same,Tollip fold change TBI-CN-105/S-v,TBI CN-105 vs sham vehicle,−3.2
same,"Bcl6 ΔCt value, S-CN-105",sham + CN-105 0.05 mg/kg iv,6.6E − 02
same,"C3ar1 ΔCt value, S-CN-105",sham + CN-105 0.05 mg/kg iv,4.1E − 03
same,"C3 ΔCt value, S-CN-105",sham + CN-105 0.05 mg/kg iv,7.0E − 04
same,"C4b ΔCt value, S-CN-105",sham + CN-105 0.05 mg/kg iv,7.0E − 03
same,"Ccl1 ΔCt value, S-CN-105",sham + CN-105 0.05 mg/kg iv,2.3E − 05
same,"Ccl2 ΔCt value, S-CN-105",sham + CN-105 0.05 mg/kg iv,8.3E − 04
same,"Ccl3 ΔCt value, S-CN-105",sham + CN-105 0.05 mg/kg iv,8.0E − 04
same,"Ccl4 ΔCt value, S-CN-105",sham + CN-105 0.05 mg/kg iv,3.8E − 04
same,"Ccl5 ΔCt value, S-CN-105",sham + CN-105 0.05 mg/kg iv,1.1E − 03
same,"Ccl7 ΔCt value, S-CN-105",sham + CN-105 0.05 mg/kg iv,1.6E − 03
same,"Ccl8 ΔCt value, S-CN-105",sham + CN-105 0.05 mg/kg iv,2.1E − 03
same,"Ccl11 ΔCt value, S-CN-105",sham + CN-105 0.05 mg/kg iv,2.5E − 04
same,"Ccl12 ΔCt value, S-CN-105",sham + CN-105 0.05 mg/kg iv,6.5E − 03
same,"Ccl17 ΔCt value, S-CN-105",sham + CN-105 0.05 mg/kg iv,4.2E − 03
same,"Ccl19 ΔCt value, S-CN-105",sham + CN-105 0.05 mg/kg iv,2.9E − 02
same,"Ccl20 ΔCt value, S-CN-105",sham + CN-105 0.05 mg/kg iv,1.1E − 04
same,"Ccl22 ΔCt value, S-CN-105",sham + CN-105 0.05 mg/kg iv,3.8E − 04
same,"Ccl24 ΔCt value, S-CN-105",sham + CN-105 0.05 mg/kg iv,9.7E − 05
same,"Ccl25 ΔCt value, S-CN-105",sham + CN-105 0.05 mg/kg iv,1.4E − 02
same,"Ccr1 ΔCt value, S-CN-105",sham + CN-105 0.05 mg/kg iv,7.1E − 04
same,"Ccr2 ΔCt value, S-CN-105",sham + CN-105 0.05 mg/kg iv,5.5E − 04
same,"Ccr3 ΔCt value, S-CN-105",sham + CN-105 0.05 mg/kg iv,2.1E − 03
same,"Ccr4 ΔCt value, S-CN-105",sham + CN-105 0.05 mg/kg iv,6.0E − 06
same,"Ccr7 ΔCt value, S-CN-105",sham + CN-105 0.05 mg/kg iv,2.1E − 04
same,"Cd40lg ΔCt value, S-CN-105",sham + CN-105 0.05 mg/kg iv,6.9E − 05
same,"Cd40 ΔCt value, S-CN-105",sham + CN-105 0.05 mg/kg iv,8.3E − 04
same,"Cebpb ΔCt value, S-CN-105",sham + CN-105 0.05 mg/kg iv,1.1E − 01
same,"Crp ΔCt value, S-CN-105",sham + CN-105 0.05 mg/kg iv,*
same,"Csf1 ΔCt value, S-CN-105",sham + CN-105 0.05 mg/kg iv,1.9E − 02
same,"Cxcl1 ΔCt value, S-CN-105",sham + CN-105 0.05 mg/kg iv,1.6E − 04
same,"Cxcl2 ΔCt value, S-CN-105",sham + CN-105 0.05 mg/kg iv,2.8E − 04
same,"Cxcl3 ΔCt value, S-CN-105",sham + CN-105 0.05 mg/kg iv,2.3E − 05
same,"Cxcl5 ΔCt value, S-CN-105",sham + CN-105 0.05 mg/kg iv,2.5E − 03
same,"Cxcl9 ΔCt value, S-CN-105",sham + CN-105 0.05 mg/kg iv,1.0E − 04
same,"Cxcl10 ΔCt value, S-CN-105",sham + CN-105 0.05 mg/kg iv,1.9E − 03
same,"Cxcl11 ΔCt value, S-CN-105",sham + CN-105 0.05 mg/kg iv,9.0E − 05
same,"Cxcr4 ΔCt value, S-CN-105",sham + CN-105 0.05 mg/kg iv,6.6E − 03
same,"Fasl ΔCt value, S-CN-105",sham + CN-105 0.05 mg/kg iv,1.9E − 04
same,"Flt3l ΔCt value, S-CN-105",sham + CN-105 0.05 mg/kg iv,3.0E − 03
same,"Fos ΔCt value, S-CN-105",sham + CN-105 0.05 mg/kg iv,2.3E − 01
same,"Hdac4 ΔCt value, S-CN-105",sham + CN-105 0.05 mg/kg iv,9.1E − 02
same,"Ifng ΔCt value, S-CN-105",sham + CN-105 0.05 mg/kg iv,5.8E − 05
same,"Il1a ΔCt value, S-CN-105",sham + CN-105 0.05 mg/kg iv,1.9E − 03
same,"Il1b ΔCt value, S-CN-105",sham + CN-105 0.05 mg/kg iv,2.0E − 03
same,"Il1f10 ΔCt value, S-CN-105",sham + CN-105 0.05 mg/kg iv,*
same,"Il1r1 ΔCt value, S-CN-105",sham + CN-105 0.05 mg/kg iv,1.2E − 02
same,"Il1rap ΔCt value, S-CN-105",sham + CN-105 0.05 mg/kg iv,4.4E − 02
same,"Il1rn ΔCt value, S-CN-105",sham + CN-105 0.05 mg/kg iv,*
same,"Il6ra ΔCt value, S-CN-105",sham + CN-105 0.05 mg/kg iv,4.9E − 03
same,"Il6 ΔCt value, S-CN-105",sham + CN-105 0.05 mg/kg iv,1.1E − 04
same,"Il7 ΔCt value, S-CN-105",sham + CN-105 0.05 mg/kg iv,3.2E − 04
same,"Il8ra ΔCt value, S-CN-105",sham + CN-105 0.05 mg/kg iv,*
same,"Il8rb ΔCt value, S-CN-105",sham + CN-105 0.05 mg/kg iv,6.1E − 05
same,"Il9 ΔCt value, S-CN-105",sham + CN-105 0.05 mg/kg iv,*
same,"Il10rb ΔCt value, S-CN-105",sham + CN-105 0.05 mg/kg iv,3.0E − 02
same,"Il10 ΔCt value, S-CN-105",sham + CN-105 0.05 mg/kg iv,1.1E − 04
same,"Il18rap ΔCt value, S-CN-105",sham + CN-105 0.05 mg/kg iv,4.5E − 05
same,"Il18 ΔCt value, S-CN-105",sham + CN-105 0.05 mg/kg iv,1.8E − 01
